Data as given in patent US12180509B2, “Methods for reprograming non-pluripotent cells into pluripotent stem cells” (Beihao Stem Cell and Regenerative Medicine Research …, priority 2015, dated 2024).

Legend:
XEN-like cells = assay: Transition of XEN-like colonies to CiPSCs (stages 2 and 3); type: cell-based, mouse; settings: screen of 88 small molecules in the presence of VC6TFA plus DZNep, stage 2 of 12 days
Method: MEFs, MNFs or MAFs were plated at 300,000 cells per 100 mm dish, or 50,000 cells per well on a 6-well plate. The next day (day 0), the culture was changed into stage 1 medium supplemented with small-molecule cocktail VC6TFAE (0.5 mM VPA, […] CHIR99021, 10 μM 616452, 5 μM Tranylcypromine, 50 µM FSK, 0.05 μM AM580 and 5 μM EPZ004777). […] The cells were harvested and then re-plated at 100,000 cells per well of a 6-well plate (1:15). During days 12-16, the cells were cultured in stage 1 medium supplemented with a modified small-molecule cocktail VC6TFA (0.5 mM VPA, 10 μM CHIR99021, 10 μM 616452, 5 μM Tranylcypromine, 10 μM FSK, 0.05 μM AM580). On day 16, XEN-like epithelial colonies were formed and the culture was changed into stage 2 medium supplemented with small-molecule cocktail VC6TFAZDS (0.5 mM VPA, 10 μM CHIR99021, 10 μM 616452, 5 μM Tranylcypromine, 10 μM FSK, 0.05 μM AM580, 0.05 μM DZNep, 0.5 μM 5-aza-dC and 5 μM SGC0946). On day 28, the culture was transferred into stage 3 medium. […] During CiPSC induction, the medium and small molecules were changed every 4 days.
Studies were next conducted to identify small molecules that facilitate the transition of XEN-like colonies to CiPSCs during stages 2 and 3. Small-molecule screenings were performed in the presence of small molecule cocktail VC6TFA plus DZNep (Z) for 12 days with successful enhanced generation of CiPSC colonies. […]

[1] = test system: pluripotency-related genes and XEN marker genes; assay: Real-time PCR of pluripotency, XEN and MET genes during chemical reprogramming; type: cell-based, mouse; settings: stage 2, XEN-like cells
Method: Total RNA from an entire well of cultured cells was isolated using the RNeasy Plus MiniKit (QIAGEN). For a single colony, RNA was isolated using the RNeasy Micro Kit (QIAGEN). RNA was converted to cDNA using TransScript First-Strand cDNA Synthesis SuperMix (TransGen Biotech). PCR was carried out using Power SYBRR Green PCR Master Mix (Applied Biosystems) and performed on an ABI Prism 7300 Sequence Detection System. The data were analyzed using the delta-delta Ct method.

For `Nc1ncn([C@H]2C[C@H](O)[C@@H](CO)O2)c(=O)n1` [5-aza-dC], the “CiPSC colony formation in stage 3” value (XEN-like cells) was “CiPSC colonies formed in stage 3 only when the cell culture medium was supplemented with 5-aza-dC” and the “expression of pluripotency genes (Oct4, Dppa family genes)” value [1] was “promote the expression of pluripotency genes”.
